Like-named read-outs stand apart in the source and are kept apart here. Each block holds one compound with its values, some of them ahead of it.
What was measured:
[1] = cited from earlier work
[2] = rat liver microsomal incubations, intrinsic clearance; assay type: in vitro ADME; conditions: Sprague-Dawley, microsomes, pH 7.4
[3] = rat pharmacokinetics, intravenous; assay type: in vivo, male Sprague-Dawley rats; conditions: for AUC: male, Sprague-Dawley, rat, whole blood, iv, 0.5 mg/kg
[4] = target: T1, hURAT1 (SLC22A12) (Homo sapiens, UniProt Q96S37); assay: inhibition of 14C-urate uptake in oocytes expressing hURAT1; assay type: cell-based; conditions: for IC50: hURAT1 IC50 (nM) ± SD, inhibition of 14C-urate uptake in oocytes expressing hURAT1; for fold weaker hURAT1 inhibitor than (1): IC50 compared with (1) (26 nM)
T1 sequence (Q96S37 1-553): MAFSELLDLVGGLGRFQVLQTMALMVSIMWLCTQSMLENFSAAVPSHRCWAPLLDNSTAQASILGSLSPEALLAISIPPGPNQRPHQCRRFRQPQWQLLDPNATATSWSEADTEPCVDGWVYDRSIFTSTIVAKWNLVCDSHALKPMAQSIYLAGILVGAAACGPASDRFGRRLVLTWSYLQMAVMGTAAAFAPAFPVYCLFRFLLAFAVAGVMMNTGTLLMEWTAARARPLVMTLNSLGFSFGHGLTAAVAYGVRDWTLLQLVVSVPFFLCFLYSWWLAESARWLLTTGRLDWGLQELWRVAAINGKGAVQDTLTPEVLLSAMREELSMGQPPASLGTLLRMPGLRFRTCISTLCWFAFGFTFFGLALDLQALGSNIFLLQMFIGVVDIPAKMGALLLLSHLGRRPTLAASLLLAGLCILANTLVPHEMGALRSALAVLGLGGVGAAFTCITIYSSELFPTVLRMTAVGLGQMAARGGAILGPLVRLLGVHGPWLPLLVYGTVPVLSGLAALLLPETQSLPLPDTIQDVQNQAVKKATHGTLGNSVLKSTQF

SMILES: CC(C)(C)c1cccc(C(C)(C)C)c1O [2,6-di-tert-butyl-phenol]
pKa ([1]; phenol pKa values ref 11): 10.2

SMILES: CCc1oc2ccccc2c1C(=O)c1cc(Br)c(O)c(Br)c1 [(1), (3,5-dibromo-4-hydroxyphenyl)(2-ethylbenzofuran-3-yl)methanone, reference compound]
microsomal CLint at 1 µM [2]: 51.3 ± 6.7 µL/min/mg
AUC [3]: 9070 ± 590 ng·h/mL
T1/2 ([3]; parent compound, orbital sinus 0.5 mg/kg, blood, n = 3 ± SD): 1.1 ± 0.1 h

SMILES: CCc1oc2ccc(OC)cc2c1C(=O)c1ccc(O)cc1 [(2), (2-ethyl-5-methoxybenzofuran-3-yl)(4-hydroxyphenyl)methanone]
microsomal CLint at 1 µM [2]: 412 ± 6.4 µL/min/mg

SMILES: CCc1oc2cc(OC)ccc2c1C(=O)c1cc(Br)c(O)c(Br)c1 [(3), (3,5-dibromo-4-hydroxyphenyl)(2-ethyl-6-methoxybenzofuran-3-yl)methanone]
microsomal CLint at 1 µM [2]: 207 ± 4.2 µL/min/mg
AUC [3]: 9600 ± 280 ng·h/mL

SMILES: CCc1oc2cc(OC)c(Br)cc2c1C(=O)c1cc(Br)c(O)c(Br)c1 [(4), (5-bromo-2-ethyl-6-methoxybenzofuran-3-yl)(3,5-dibromo-4-hydroxyphenyl)methanone]
microsomal CLint at 1 µM [2]: 23.5 ± 10.9 µL/min/mg

SMILES: CCc1oc2cc(O)ccc2c1C(=O)c1cc(Br)c(O)c(Br)c1 [(5), (3,5-dibromo-4-hydroxyphenyl)(2-ethyl-6-hydroxybenzofuran-3-yl)methanone]
microsomal CLint at 1 µM [2]: 19.7 ± 2.8 µL/min/mg
AUC [3]: 6160 ± 680 ng·h/mL

SMILES: CCc1oc2ccc(OC)cc2c1C(=O)c1cc(Br)c(O)c(Br)c1 [(6), (3,5-dibromo-4-hydroxyphenyl)(2-ethyl-5-methoxybenzofuran-3-yl)methanone]
microsomal CLint at 1 µM [2]: 44.9 ± 6.6 µL/min/mg
AUC [3]: 2630 ± 250 ng·h/mL

SMILES: CCc1oc2cc(Br)c(O)c(Br)c2c1C(=O)c1ccc(OC)cc1 [(7), (4,6-dibromo-2-ethyl-5-hydroxybenzofuran-3-yl)(4-methoxyphenyl)methanone]
microsomal CLint at 1 µM [2]: 286.8 ± 0.9 µL/min/mg

SMILES: CCc1oc2ccc(O)cc2c1C(=O)c1cc(Br)c(O)c(Br)c1 [(8), (3,5-dibromo-4-hydroxyphenyl)(2-ethyl-5-hydroxybenzofuran-3-yl)methanone]
microsomal CLint at 1 µM [2]: 52 ± 0.1 µL/min/mg
AUC [3]: 940 ± 80 ng·h/mL

SMILES: CCc1oc2ccc(F)cc2c1C(=O)c1cc(Br)c(O)c(Br)c1 [(9), (3,5-dibromo-4-hydroxyphenyl)(2-ethyl-5-fluorobenzofuran-3-yl)methanone]
microsomal CLint at 1 µM [2]: 142 ± 5.5 µL/min/mg
AUC [3]: 5260 ± 810 ng·h/mL

SMILES: CCc1oc2ccccc2c1C(=O)c1ccc(O)c(F)c1 [(10), (2-ethylbenzofuran-3-yl)(3-fluoro-4-hydroxyphenyl)methanone]
IC50 [4]: 2410 ± 90 nM

SMILES: CCc1oc2ccccc2c1C(=O)c1ccc(O)c(Cl)c1 [(11), (3-chloro-4-hydroxyphenyl)(2-ethylbenzofuran-3-yl)methanone]
IC50 [4]: 874 ± 56 nM

SMILES: CCc1oc2ccccc2c1C(=O)c1ccc(O)c(Br)c1 [(12), (3-bromo-4-hydroxyphenyl)(2-ethylbenzofuran-3-yl)methanone]
IC50 [4]: 814 ± 160 nM

SMILES: CCc1oc2ccccc2c1C(=O)c1ccc(O)c(I)c1 [(13), (2-ethylbenzofuran-3-yl)(4-hydroxy-3-iodophenyl)methanone]
IC50 [4]: 1490 ± 80 nM

SMILES: CCCCc1oc2ccccc2c1C(=O)c1ccc(O)cc1 [(17), (2-butylbenzofuran-3-yl)(4-hydroxyphenyl)methanone]
hURAT1 inhibition compared with corresponding ethyl analog ([4]; butyl versus ethyl analog, ethyl analog ref 10): much weaker inhibitor than the corresponding ethyl analog

SMILES: O=c1[nH]c(=O)c2[nH]c(=O)[nH]c2[nH]1 [uric acid]
pKa ([1]; in urine): 5.4

Continued, values first:

IC50 [4]: 7540 ± 60 nM
SMILES: CCc1oc2ccccc2c1C(=O)c1cc(C)c(O)c(C)c1 [(15), (2-ethylbenzofuran-3-yl)(4-hydroxy-3,5-dimethylphenyl)methanone]

fold weaker hURAT1 inhibitor than (1) [4]: ~ 47 fold
IC50 [4]: 1220 ± 110 nM
SMILES: CCc1oc2ccccc2c1C(=O)c1cc(Br)c(OC)c(Br)c1 [(16), (3,5-dibromo-4-methoxyphenyl)(2-ethylbenzofuran-3-yl)methanone]

IC50 [4]: 1930 ± 90 nM
SMILES: CCCCc1oc2ccccc2c1C(=O)c1cc(Br)c(O)c(Br)c1 [(18), (2-butylbenzofuran-3-yl)(3,5-dibromo-4-hydroxyphenyl)methanone]

fold weaker hURAT1 inhibitor than (1) [4]: ~ 15 fold
IC50 [4]: 399 ± 56 nM
SMILES: CCc1oc2ccccc2c1C(=O)c1cc(Cl)c(O)c(Cl)c1 [(19), (3,5-dichloro-4-hydroxyphenyl)(2-ethylbenzofuran-3-yl)methanone]

microsomal CLint at 1 µM [2]: 704 ± 12.7 µL/min/mg
SMILES: CCc1cc2cc(OC)cc(C(=O)c3ccc(OC)cc3)c2o1 [(20), (2-ethyl-5-methoxybenzofuran-7-yl)(4-methoxyphenyl)methanone]

microsomal CLint at 1 µM [2]: 210 ± 5.9 µL/min/mg
SMILES: CCc1cc2cc(OC)cc(C(=O)c3cc(Br)c(O)c(Br)c3)c2o1 [(21), (3,5-dibromo-4-hydroxyphenyl)(2-ethyl-5-methoxybenzofuran-7-yl)methanone]

microsomal CLint at 1 µM [2]: 454 ± 18.2 µL/min/mg
SMILES: CCc1cc2cc(O)cc(C(=O)c3cc(Br)c(O)c(Br)c3)c2o1 [(22), (3,5-dibromo-4-hydroxyphenyl)(2-ethyl-5-hydroxybenzofuran-7-yl)methanone]

microsomal CLint at 1 µM [2]: 121 ± 12.2 µL/min/mg
SMILES: CCc1cc2c(C(=O)c3ccc(OC)cc3)cc(Br)c(O)c2o1 [(23), (6-bromo-2-ethyl-7-hydroxybenzofuran-4-yl)(4-methoxyphenyl)methanone]

microsomal CLint at 1 µM [2]: 323 ± 10.8 µL/min/mg
SMILES: CCc1cc2c(C(=O)c3cc(Br)c(O)c(Br)c3)c(OC)ccc2o1 [(24), (3,5-dibromo-4-hydroxyphenyl)(2-ethyl-5-methoxybenzofuran-4-yl)methanone]

microsomal CLint at 1 µM [2]: 94.8 ± 5.1 µL/min/mg
SMILES: CCc1cc2c(C(=O)c3cc(Br)c(O)c(Br)c3)c(O)ccc2o1 [(25), (3,5-dibromo-4-hydroxyphenyl)(2-ethyl-5-hydroxybenzofuran-4-yl)methanone]

microsomal CLint at 1 µM [2]: 34.3 ± 1.2 µL/min/mg
SMILES: CCc1cc2c(C(=O)c3cc(Br)c(O)c(Br)c3)cc(Br)c(O)c2o1 [(26), (6-bromo-2-ethyl-7-hydroxybenzofuran-4-yl)(3,5-dibromo-4-hydroxyphenyl)methanone]
